≈ marks a conversion by molar mass, not a printed value.
How the values were obtained:
[1] = target: T1, E3 ubiquitin-protein ligase TRIM58 (Homo sapiens, UniProt Q8NG06); assay: Displacement of Ac-DKSDLKAELERKK-C(BODIPY-FL-M)-RLAQIREEKKRKEE-NH2 peptide probe from TRIM58 (279 to 466 residue) (unknown origin) preincubated for 30 mins followed by probe addition by fluorescence polarization method
T1 sequence (Q8NG06 whole entry): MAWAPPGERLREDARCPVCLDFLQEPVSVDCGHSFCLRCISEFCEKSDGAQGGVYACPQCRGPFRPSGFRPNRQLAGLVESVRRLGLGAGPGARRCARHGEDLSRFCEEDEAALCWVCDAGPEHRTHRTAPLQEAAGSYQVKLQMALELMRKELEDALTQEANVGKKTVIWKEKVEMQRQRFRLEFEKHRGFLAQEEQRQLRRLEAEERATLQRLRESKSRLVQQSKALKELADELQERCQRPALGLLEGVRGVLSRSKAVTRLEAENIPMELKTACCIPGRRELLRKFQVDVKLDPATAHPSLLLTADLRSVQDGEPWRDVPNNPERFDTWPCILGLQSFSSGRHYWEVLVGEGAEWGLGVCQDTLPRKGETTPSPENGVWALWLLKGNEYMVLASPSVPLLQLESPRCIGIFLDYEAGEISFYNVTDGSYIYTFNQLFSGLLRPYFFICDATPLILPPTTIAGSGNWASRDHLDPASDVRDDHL

[2] = Lipophilicity, log D of the compound in octanol/buffer system at pH 7.4 by shake-flask based LC/MSMS analysis; format: physicochemical
[3] = Apparent permeability across apical to basolateral side in low efflux MDCK cells; format: ADME, cell-based, Canis lupus familiaris; conditions: dog
[4] = Solubility of the compound at pH 6.8 by high-throughput equilibrium solubility assay; format: physicochemical; conditions: buffer
[5] = target: T1, E3 ubiquitin-protein ligase TRIM58; assay: Binding affinity against N-terminal 6His-tagged TRIM58 (251 to 466 residue) (unknown origin) expressed in Escherichia coli BL21 (DE3) by SPR assay

Row | SMILES | EC50 [1] [µM] | logD [2] | Papp A→B [3] [×10⁻⁶ cm/s] | solubility thermodynamic [4] [µM] | Kd [5] [µM]
1 | CNc1nc(NCC2CCNCC2)c2ccccc2n1 | > 100 | -0.8 | 1.6 | > 750 | 
2 | CN(C)CCCNc1nc(NCC2CCNCC2)c2cc(-c3ccccc3)ccc2n1 | 5.3 | < -1 |  | > 1000 | 24
3 | CNc1nc(NCC2CCNCC2)c2cc(C3CCCCC3)ccc2n1 | 6.6 | 0.5 | 1.1 | > 750 | 
4 | c1ccc(-c2ccc3nc(NCC4CC4)nc(NCC4CCNCC4)c3c2)cc1 | 8.6 | 1.1 | 3.5 | 20 (≈ 7.75 µg/mL) | 
5 | c1ccc2cc(-c3nn[nH]n3)c(NCC3CCNCC3)cc2c1 | > 100 |  |  |  | 
6 | CN(C)CCCNc1nc(NCCc2ccccc2)c2cc(-c3ccccc3)ccc2n1 | 12.7 | 3.3 | 24 | 40 (≈ 17 µg/mL) | 

Continued, values first:

Row | EC50 [1] [µM] | logD [2] | Papp A→B [3] [×10⁻⁶ cm/s] | solubility thermodynamic [4] [µM] | Kd [5] [µM] | SMILES
7 | > 100 | 1.2 | 0.6 | > 750 |  | CNCCCNc1nc(NCC2CCNCC2)c2cc(-c3ccccc3)ccc2n1
8 | 75 | 1.7 |  | 100 (≈ 26.4 µg/mL) |  | CNc1nc(NC)c2cc(-c3ccccc3)ccc2n1
9 | 12 |  | 1.6 | 80 (≈ 27.8 µg/mL) |  | CNc1nc(NCC2CCNCC2)c2cc(-c3ccccc3)ccc2n1
10 | 74 | -0.5 | 29 | > 750 |  | CNc1nc(OCC2CCNCC2)c2cc(-c3ccccc3)ccc2n1
11 | 7.4 | 4 | 19 | 60 (≈ 24.3 µg/mL) |  | CCCCCCNc1nc(NCCCN(C)C)nc2ccc(-c3ccccc3)cc12
